Assay results taken from patent US20250074894A1, “NITROPHENYL-ACRYLAMIDES AND USES THEREOF” (BROWN UNIVERSITY, priority 2021, published 2025).

What was measured:
GSC-grafted mice = conditions: cited from earlier work
[1] = tested on: GSCs from two patients with glioblastoma; assay: In vitro extreme limiting dilution analysis (ELDA), GSC self-renewal; format: cell-based, human; conditions: 40 μM, 14 days, vs DMSO
Method: To examine whether treatment with Entacapone affects the ability of GSCs to self-renew, serial dilutions of GSCs were cultured from two patients with glioblastoma in the presence of 40 μM entacapone or DMSO (Control) for 14 days.

Notch1 = Notch1 inhibition assay (Western Blot in GSCs); format: cell-based, human; conditions: 40 µM, 48 hours, two GSC lines
[2] = tested on: cancer stem cell transcripts in GSCs; assay: qPCR array for 84 cancer stem cell markers in GSCs; format: cell-based, human; conditions: 40 µM, 48 hours
Method: GSCs were treated with 40 µM entacapone for 48 hours to assess whether entacapone would affect expression of stemness-related transcripts. A qPCR array for 84 validated cancer stem cell markers was performed (Qiagen-RT-profiler PCR arrays).

[3] = tested on: Patient derived glioma stem cells (GSCs); assay: GSC invasion live imaging (Incucyte); format: cell-based, human; conditions: vs DMSO
Method: GSCs in Matrigel 3D matrix, were treated with 40 µM entacapone or DMSO (control) and live imaging was performed in regular time intervals using the Incucyte live cell imaging system. Normalized area of invasion was quantified following normalization of the invading area with the area occupied by the GSC sphere.
Patient derived glioma stem cells (GSCs) were incubated with 70 μM Compound 31 or DMSO (control) for 72 hours and GSC invasion into the surrounding extracellular matrix was quantified in real time using Incucyte Cell Imager. […] GSC invasion is one of the hallmarks of glioblastoma.

FTO = FTO (Homo sapiens, UniProt Q9C0B1); assay: FTO activity assay (demethylation of m6A methylated RNA substrate); format: biochemical; conditions: for inhibition at 20 µM: read-out: reduction of FTO activity / FTO activity inhibition
Method: An FTO activity assay was performed to determine the inhibitory activity of compounds provided herein towards FTO and compare them with entacapone. This assay measures the ability of FTO to demethylate an m6A methylated RNA substrate. The assay is specific to FTO and is not affected by the function of ALKBH5, which is another RNA demethylase in eukaryotic cells.

Glioma stem cells = assay: Glioma stem cell viability, Cell Titer Glo; format: cell-based, human; conditions: 48 hours
Method: Glioma stem cells were incubated with various increasing concentrations of Compound 31 and the percentage of viable cells at 48 hours was quantified using Cell Titer Glo (Promega). […] For the functional assays described below, the IC10 was used to maintain at least 90% viability.

[4] = tested on: diffuse intrinsic pontine glioma (DIPG) cells; assay: Limiting dilution assay (LDA), DIPG cell self-renewal; format: cell-based, human; conditions: clonal tumor spheres over 2 weeks
Method: A limiting dilution assay (LDA) was used to determine the effect of FTO inhibition with Compound 31 on the self-renewal ability of diffuse intrinsic pontine glioma (DIPG) cells—a type of brain tumor found in an area of the brainstem known as the pons. With this assay DIPG cells are plated on 96-well plates in various numbers (2000 cell per well down to 1 cell per well) and the ability of cells to self-renew and form clonal tumor spheres is measured over a period of 2 weeks.

[5] = tested on: Patient derived DIPG cells; assay: DIPG cell invasion (Incucyte Cell Imager); format: cell-based, human; conditions: 10 μM, 72 hours, vs DMSO, p<0.05
Method: Patient derived DIPG cells were incubated with 10 μM Compound 31 or DMSO (control) for 72 hours and DIPG invasion into the surrounding extracellular matrix was quantified in real time using Incucyte Cell Imager.

Hela cells = conditions: cited from earlier work

Sequence of FTO (Q9C0B1 whole entry, species assumed): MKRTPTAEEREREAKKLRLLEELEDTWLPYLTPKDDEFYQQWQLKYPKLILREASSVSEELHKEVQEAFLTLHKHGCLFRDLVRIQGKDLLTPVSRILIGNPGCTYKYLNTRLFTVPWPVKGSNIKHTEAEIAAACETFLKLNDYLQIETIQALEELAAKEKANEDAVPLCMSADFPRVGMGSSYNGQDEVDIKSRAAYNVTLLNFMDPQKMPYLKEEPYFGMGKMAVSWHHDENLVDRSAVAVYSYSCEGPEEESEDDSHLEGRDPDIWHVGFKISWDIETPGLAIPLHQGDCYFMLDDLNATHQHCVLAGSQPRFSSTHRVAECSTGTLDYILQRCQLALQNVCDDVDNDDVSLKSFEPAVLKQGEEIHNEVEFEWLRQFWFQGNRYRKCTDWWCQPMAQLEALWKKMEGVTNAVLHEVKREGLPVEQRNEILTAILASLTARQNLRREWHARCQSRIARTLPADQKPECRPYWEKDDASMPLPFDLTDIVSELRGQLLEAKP

In the case of CCOC(=O)c1ccccc1Nc1c(Cl)ccc(C)c1Cl [ethyl ester of meclofenamic acid], the lifespan (GSC-grafted mice) is listed as “substantially prolong lifespan” and the tumor progression (GSC-grafted mice) is listed as “suppress tumor progression”.

With CCN(CC)C(=O)/C(C#N)=C/c1cc(O)c(O)c([N+](=O)[O-])c1 [Entacapone, entacapone, reference compound] the “tumor-sphere formation frequency of GSCs” value [1] was “significantly decreased the tumor-sphere formation frequency”, the Notch1 protein expression (Notch1) was “induces inhibition of Notch1 protein expression” and the “expression of cancer stem cell transcripts” value [2] was “significant inhibition of several cancer stem cell transcripts”. For the same molecule, the “normalized GSC invasion area” value ([3]; 40 µM, Matrigel 3D matrix, 66 hours) was “inhibits invasion of GSCs”, the “% FTO activity” value (FTO; 20 μM) was 83% and the inhibition at 20 µM (FTO; 20 μM) was < 20%. For the same molecule, the “% FTO activity” value (FTO; 40 μM) was 61.5%^ and the “FTO activity inhibition compared with 20 μM compound 31” value (FTO; 40 μM) was “less FTO activity inhibition than 20 UM compound 31”.

In the case of CCN(CCN1CC(OC)C1)C(=O)/C(C#N)=C/c1cc(O)c(O)c([N+](=O)[O-])c1 [Compound 1], the “FTO inhibitory activity compared to entacapone” value (FTO) is reported as “significantly higher FTO inhibitory activity compared to entacapone”, the “% FTO activity” value (FTO; 20 μM) is reported as 61% and the inhibition at 20 µM (FTO; 20 μM) is reported as ≥ 40%. The “% FTO activity” value (FTO; 40 μM) was 59%.

With CCN(CCSCCCF)C(=O)/C(C#N)=C/c1cc(O)c(O)c([N+](=O)[O-])c1 [Compound 31] the “GSC invasion into surrounding extracellular matrix” value ([3]; 70 μM, 72 hours, p<0.05) was “significant inhibition of GSC invasion”, the “IC10, viable cells” value (Glioma stem cells) was 70 µM and the IC50 (Glioma stem cells; Homo sapiens, read-out: IC50, viable cells) was 114 µM. The “FTO inhibitory activity compared to entacapone” value (FTO) was “significantly higher FTO inhibitory activity compared to entacapone”, the “% FTO activity” value (FTO; 20 μM) was 54% and the inhibition at 20 µM (FTO; 20 μM) was ≥ 40%. For the same molecule, the “% FTO activity” value (FTO; 40 μM) was 48%, the “self-renewal ability of DIPG cells” value [4] was “significantly inhibits the self-renewal ability of DIPG cells” and the “DIPG invasion into surrounding extracellular matrix” value [5] was “significant inhibition of DIPG invasion”.

For C=CC(=O)Nc1ccc([N+](=O)[O-])cc1 [N-(4-nitrophenyl) acrylamide], the IC50 (Hela cells) is listed as 1000 µM.
